In article PMC3479135, “Crystal Structures of Bovine CD1d Reveal Altered αGalCer Presentation and a Restricted A’ Pocket Unable to Bind Long-Chain Glycolipids” (PLoS ONE, 2012):

Target: T1, boCD1d (bovine CD1d ectodomain with boβ2M) (Bos taurus, UniProt A1L565)
T1 construct: heavy-chain ectodomain (α1-α3), endogenous leader replaced by boCD1b3 leader, C-terminal hexa-His tag, no Fc; co-expressed with bovine β2m in baculovirus/insect cells; non-covalent heterodimer; N-glycosylated at Asn20 and Asn42; with Beta-2-microglobulin
Test: X-ray crystal structure, […] Å; native IEF gel shift
Format: binding
Settings: crystallised in 20% PEG 3350, 0.2 M sodium formate; IEF loading overnight at room temperature, 100 mM Tris-HCl pH 7, no Tween 20; A' and F' pockets

T1 sequence (A1L565 129-405): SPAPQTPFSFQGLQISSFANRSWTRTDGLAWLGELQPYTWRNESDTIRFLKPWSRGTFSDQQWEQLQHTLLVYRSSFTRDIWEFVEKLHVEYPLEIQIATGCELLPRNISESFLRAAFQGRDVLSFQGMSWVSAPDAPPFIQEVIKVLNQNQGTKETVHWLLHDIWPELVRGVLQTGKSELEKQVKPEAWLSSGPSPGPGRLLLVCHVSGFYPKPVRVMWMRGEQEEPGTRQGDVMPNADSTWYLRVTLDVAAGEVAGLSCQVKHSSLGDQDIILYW
T1 sequence (P01888 21-118 partner): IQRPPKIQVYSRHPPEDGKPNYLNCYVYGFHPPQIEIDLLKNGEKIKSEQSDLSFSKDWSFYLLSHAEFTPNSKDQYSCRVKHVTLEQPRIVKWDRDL

CCCCCCCCCCCCC/C=C/[C@@H](O)[C@H](CO[C@@H]1O[C@H](COS(=O)(=O)O)[C@H](O)[C@H](OS(=O)(=O)O)[C@H]1O)NC(=O)CCCCCCCCCCC [compound 2, C12∶0-di-sulfatide]
X-ray crystal structure, 2.9 Å; native IEF gel shift: we crystallized boCD1d in complex with synthetic C12∶0-di-sulfatide (di-SLF)
